This is an account of results in publication PMC7130106 (Drug Design, Development and Therapy, 2020).

Broadly, the IC50 is the concentration that inhibits the measured activity by half.

“Also recorded” adds a separate entry of the source.

Data set [1] has as its system L. donovani promastigotes. The following applies: read-out: IC50 on L. donovani promastigotes; ref 38 (Patterson et al); cited from earlier work.
For data set [2] the following is noted: cited from earlier work.
For data set [3] the following is noted: co-administered with tenofovir, efavirenz, ritonavir and rifampin; cited from earlier work.
The test system of data set [4] is various clinical isolates of L. donovani. To be noted: read-out: lowest IC50, L. donovani isolates obtained from Ethiopia; ref 38 (Patterson et al); cited from earlier work.
Another data set has as its system L. mexicana. The following applies: read-out: IC50 on L. mexicana; ref 28 (Berry et al); cited from earlier work.
The subject of data set [5] is intracellular amastigote stages of L. donovani. The experiment in a line: Synergy evaluation, combination index method with amphotericin B. In kind it is cell-based, Leishmania donovani.
In data set [6] the test system is Leishmania donovani promastigotes. In kind it is cell-based.

Consider `C[C@]1(COc2ccc(N3CCC(Oc4ccc(OC(F)(F)F)cc4)CC3)cc2)Cn2cc([N+](=O)[O-])nc2O1` [MMV688262, delamanid], for which the figures for the IC50 (in data set [1]; in data set [4]; in the data set with L. mexicana) were 15 nM, 86.5 nM and 1780 nM, respectively. The renal excretion in data set [2] is less than 5%. Also, in data set [2] (in words), the volume of distribution entry is “high volume of distribution”. Also, in data set [3], the “interaction with anti-retroviral and anti-TB drugs” value was “no clinically relevant interaction”. Besides, in data set [5], the “synergistic activity with amphotericin B” value is “synergistic effect; also recorded: synergistic activity”.
As to `CC(C)(C)C(O)C(Oc1ccc(-c2ccccc2)cc1)n1cncn1` (stereo not drawn) [MMV688942], the “inhibition of promastigotes in primary screening” value in data set [6] (1 μM, 72 h, average of two independent experiments in triplicate) is on record as “considerable activity”. Further, the “dose-dependent inhibitory effect in subsequent dose titration assay” value in data set [6] (promastigotes) is reported as “failed to demonstrate a dose-dependent inhibitory effect”.
